Laboratory results taken from PubChem BioAssay (NCI).
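Test compounds were applied to cells in 96-well plates for 48 hours at 5 doses. GI50 marks 50% less growth. At the TGI there is no net growth.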

What was measured:
Experiment in all cases: growth of human tumour cells (NCI), 48 h
OVCAR-5 ovarian = system: OVCAR-5 ovarian
NCI/ADR-RES ovarian = system: NCI/ADR-RES ovarian
NCI-H460 lung = system: NCI-H460 lung
M14 melanoma = system: M14 melanoma
SF-295 CNS = system: SF-295 CNS
RPMI-8226 leukemia = system: RPMI-8226 leukemia
MDA-MB-231 breast = system: MDA-MB-231 breast
SNB-75 CNS = system: SNB-75 CNS
DU-145 prostate = system: DU-145 prostate
SR leukemia = system: SR leukemia

SMILES | TGI (OVCAR-5 ovarian) | TGI (NCI/ADR-RES ovarian) | TGI (NCI-H460 lung) | TGI (M14 melanoma) | TGI (SF-295 CNS) | TGI (RPMI-8226 leukemia) | TGI (MDA-MB-231 breast) | TGI (SNB-75 CNS) | TGI (DU-145 prostate) | TGI (SR leukemia) | GI50 (SR leukemia) | GI50 (NCI-H460 lung) | GI50 (M14 melanoma) | GI50 (RPMI-8226 leukemia) | GI50 (MDA-MB-231 breast)
N#Cc1c(-c2ccccc2)/c(=C\Nc2cccc(C(F)(F)F)c2)c(=O)n2c1nc1ccccc12 | > 100 µM | 80.4 µM | > 100 µM | > 100 µM | > 100 µM | 39.9 µM | > 100 µM | > 100 µM |  |  |  |  |  |  | 
CC[C@@H]1CC[C@@H]2[C@H](CC[C@]3(C)[C@@H](OC(C)=O)CC[C@@H]23)[C@H]1COC(C)=O | 73.8 µM | 76 µM | 45.9 µM | 76.6 µM | 65.1 µM | 48.7 µM | 56.6 µM | > 100 µM | > 100 µM |  |  |  |  |  | 
COc1cc2nc3n(c(=O)c2cc1OC)-c1ccc([N+](=O)[O-])cc1C3=O | > 100 µM | > 100 µM | > 100 µM | > 100 µM | > 100 µM | > 100 µM | > 100 µM | > 100 µM | > 100 µM |  |  |  |  |  | 
CCOC(=O)c1cn2c(n1)sc1cccc(C)c12 | > 100 µM | > 100 µM | > 100 µM | > 100 µM | > 100 µM |  | > 100 µM | > 100 µM | > 100 µM |  |  |  |  |  | 
O=C1CCCSC(=O)N1Cc1ccccc1 | > 100 µM | > 100 µM | > 100 µM | > 100 µM | > 100 µM |  | > 100 µM | > 100 µM | > 100 µM | > 100 µM |  |  |  |  | 
N#CCCC1C(C#N)C2(Cl)CC1(Cl)C(Cl)=C2Cl (centres undefined) | > 10 µM | > 10 µM | > 10 µM | > 10 µM | > 10 µM | > 10 µM | > 10 µM | > 10 µM | > 10 µM |  |  |  |  |  | 
CC(C)=CCc1c2c(c3occ(-c4ccc(O)cc4)c(=O)c3c1O)CC(C(C)(C)O)O2 (centres undefined) | 33.8 µM | 40.6 µM | 26 µM | 28.2 µM | 25 µM | 29.9 µM | 27.6 µM | 31.9 µM | 29.4 µM |  |  |  |  |  | 
O=C(N/N=C(/COc1ccc(Cl)cc1)N=Cc1ccncc1)c1ccncc1 | > 100 µM | > 100 µM | > 100 µM | > 100 µM | > 100 µM | > 100 µM | > 100 µM |  | > 100 µM |  |  |  |  |  | 
C1CN(c2nc3c(nnc4nc(N5CCOCC5)sc43)s2)CCO1 | > 100 µM | > 100 µM |  | > 100 µM | > 100 µM | > 100 µM | > 100 µM |  | > 100 µM |  |  |  |  |  | 
c1ccc(N=c2sc3ccccc3nc2Nc2ccccc2)cc1 | > 100 µM | > 100 µM | > 100 µM |  | > 100 µM | > 100 µM | > 100 µM | > 100 µM | > 100 µM | > 100 µM |  |  |  |  | 
COCO[C@@H]1C[C@H]2C(=O)Nc3ccccc3C(=O)N2C1 | > 100 µM | > 100 µM |  | > 100 µM | > 100 µM |  | > 100 µM | > 100 µM | > 100 µM |  |  |  |  |  | 
Nc1nc(Cl)cc(NCC2(CO)CC(=O)C2)n1 | > 100 µM | > 100 µM | > 100 µM |  | > 100 µM | > 100 µM | > 100 µM |  | > 100 µM | > 100 µM |  |  |  |  | 
CC(=O)O[C@@H]1[C@H](C(C)C)[C@@H](OC(C)=O)C/C(C)=C/CC[C@]2(C)O[C@@H]12 | > 100 µM | > 100 µM | > 100 µM | > 100 µM | > 100 µM | > 100 µM | > 100 µM | > 100 µM | > 100 µM |  |  |  |  |  | 
CC(C)CCS(=O)(=O)OCCCCOS(=O)(=O)CCC(C)C |  |  | > 100 µM | 29.6 µM | > 100 µM | > 100 µM |  | > 100 µM |  | > 100 µM |  |  |  |  | 
CC1CCC(n2c3cnccc3c3cnc(Nc4ccc5c(n4)CCN(C(=O)CO)C5)nc32)CC1 (centres undefined) |  |  | > 100 µM | > 100 µM |  | > 100 µM | > 100 µM |  |  | > 100 µM | 0.239 µM | 0.422 µM | 0.681 µM | 1.43 µM | 1.38 µM
[N-]=[N+]=NC[C@H]1OCO[C@H](CN=[N+]=[N-])[C@@H](OCCOCCCl)[C@@H]1OCCOCCCl |  | > 100 µM | > 100 µM | > 100 µM | > 100 µM | > 100 µM | > 100 µM | > 100 µM | > 100 µM | > 100 µM |  |  |  |  | 
CC(C)(C)N1CSC(=S)N(Cc2ccco2)C1 | 11.7 µM | 18.4 µM | 22.5 µM | 11.8 µM | 31.5 µM | 0.697 µM |  | 26.4 µM | 15.5 µM | 3.55 µM |  |  |  |  | 
O=C1CC(NC(=O)C(F)(F)F)c2c(Br)sc(N3CCNCC3)c21 (centres undefined) | > 100 µM | > 100 µM | > 100 µM | > 100 µM | > 100 µM |  | > 100 µM | > 100 µM | > 100 µM |  |  |  |  |  | 
O=[N+]([O-])c1cccc(-c2csc(NNC3=NC/C(=C/c4ccc5c(c4)OCO5)S3)n2)c1 | > 100 µM | 53 µM | > 100 µM | 96 µM | > 100 µM | 93.5 µM | 93.9 µM | 46.5 µM | > 100 µM |  |  |  |  |  | 
COC(CCC[N+](C)(C)C)CC[N+](C)(C)C (centres undefined) | > 100 µM | > 100 µM | > 100 µM | > 100 µM | > 100 µM | > 100 µM |  | > 100 µM | > 100 µM | > 100 µM |  |  |  |  | 
Cc1cn2c(/C=N/N=C(N)N)c(-c3cccc([N+](=O)[O-])c3)nc2s1 | 5.5 µM | > 100 µM | 3.78 µM | 4.36 µM | 3.3 µM | > 100 µM | 2.71 µM |  | 3.27 µM |  |  |  |  |  | 
Cc1cc(Cc2cc(C)c(N)cc2N)c(N)cc1N | > 100 µM | > 100 µM | > 100 µM | > 100 µM | > 100 µM | > 100 µM | > 100 µM | > 100 µM | > 100 µM |  |  |  |  |  | 
COc1cc(C(=O)N(C(=S)OCc2ccccn2)c2ccccc2)cc(OC)c1OC | > 100 µM | > 100 µM | > 100 µM | > 100 µM |  | 99.8 µM | > 100 µM |  | > 100 µM | 49 µM |  |  |  |  | 
